In US4629567A, “Alpha-1-antiprotease purification” (SmithKline-RIT, priority 1986, dated 1986):

Tests used:
[1] = system: trypsin; test: standard trypsin inhibition assay (microtest with chromogenic substrate S2444); type: biochemical; settings: fixed amount of trypsin, 20 min at 37° C.
Method: The activity of the four AAT proteins purified by the method of the invention was compared to that of a standard AAT preparation derived from serum in a standard trypsin inhibition assay. The assay measures the inhibitory capacity of α1 -antitrypsin toward trypsin. It consists of a microtest using the chromogenic substrate S2444 (L-pyroglutamylglycyl-L-arginine, p-nitroanilide hydrochloride, Kabi Diagnostica, Stockholm, Sweden). The polystyrene microtest plates were incubated for 1 hr with 1% bovine serum albumin and washed extensively with distilled water. α1 -antitrypsin at various concentrations was incubated with a fixed amount of trypsin for 20 min at 37° C. in a 200- 1 final reaction volume of 0.1 M Tris-HCl pH 8.2/0.15 M NaCl/0.01 M EDTA/0.5% polyethylene glycol, Mr 6000). Samples were cooled slowly at room temperature and then exposed to the chromogenic substrate (20 μl of aqueous solution of 0.003 M S2444). After 5 min at room temperature, the reaction was stopped with 50 μl of 50% acetic acid.
Absorbance was read at 405 nm in a micro-ELISA automatic reader (Dynatech AM120). Calibration curves were determined for both trypsin and α1 -antitrypsin. Samples to be assayed were diluted serially in reaction buffer.

[2] = system: trypsin; test: as above; type: biochemical; settings: fixed amount of trypsin, 20 min at 37° C.; remark: listed apart in the source

Substance	% inhibition of trypsin activity ([1]; AAT concentration 0.25 ug/ml)	% inhibition of trypsin activity ([1]; AAT concentration 0.50 ug/ml)	% inhibition of trypsin activity ([1]; AAT concentration 1.50 ug/ml)	Optical density (A410) ([2]; AAT concentration 0.25 ug/ml)	Optical density (A410) ([2]; AAT concentration 0.50 ug/ml)	Optical density (A410) ([2]; AAT concentration 1.50 ug/ml)	% inhibition of trypsin activity ([1]; AAT concentration 1 ug/ml)	% inhibition of trypsin activity ([1]; AAT concentration 2 ug/ml)	Optical density (A410) ([2]; AAT concentration 1 ug/ml)	Optical density (A410) ([2]; AAT concentration 2 ug/ml)	% inhibition of trypsin activity ([1]; AAT concentration 2.50 ug/ml)	% inhibition of trypsin activity ([1]; AAT concentration 3.50 ug/ml)	% inhibition of trypsin activity ([1]; AAT concentration 4.50 ug/ml)	Optical density (A410) ([2]; AAT concentration 2.50 ug/ml)	Optical density (A410) ([2]; AAT concentration 3.50 ug/ml)	Optical density (A410) ([2]; AAT concentration 4.50 ug/ml)
3: mature AAT (having N-met in place of the N-glu) expressed in yeast [Sample 3]	7%	17%	47%	0.95	0.84	0.54										
4: AAT from human plasma, purified by the method of the invention [Sample 4]	17%			0.74			46%	93%	0.48	0.06						
standard: standard AAT preparation derived from serum		11%			.78		33%	66%	.63	.32	74%	82%	90%	.24	.17	.1
